For orientation: melting point means the temperature, or range, at which the solid turns liquid. One may read the IC50 as the midpoint of a concentration-inhibition curve. A word on the inhibition: it is the drop in the measured response relative to a control, in per cent. A high value points to a response far below the control.

In data set [1] the test system is HCMV. Put plainly: CMV antiviral assay, cell culture based ELISA in human foreskin fibroblast cells. More on the design: species or system human cytomegalovirus (HCMV). As for the experimental part:
Compounds are tested for direct antiviral activity against HCMV using a cell culture based assay. An ELISA (enzyme linked immunosorbant assay) format is used as described in W. A. Tatarowicz, N. S. Lurain and K. D. Thompson, J. Virol. Meth., 35:207-215 (1991). Human foreskin fibroblast cells are infected with HCMV at a multiplicity of 0.025 plaque forming units per microtiter plate well for a period of 90 minutes. The virus inocula is removed and a suspension of test compound prepared in tissue culture media is added for a period of 4 days. The growth media is aspirated and replaced with 95% ethanol to allow fixation of virus infected cultures. The ethanol is removed and the wells are washed twice with saline. A solution of 2% dry fat milk, 1% bovine sera albumin prepared in saline is added to wells to allow for non-specific binding of protein material to plastic surfaces for 1 hr. Murine monoclonal antibody prepared in saline directed against the late (65 KD) matrix protein of HCMV is added to test wells for 1 hr. The wells are washed twice and antibody, conjugated with the enzyme horse radish peroxidase, with specificity against murine IgG is added to test wells for 1 hr. Test wells are washed three times with saline. A solution of o-phenylene diamine, a substrate for horse radish peroxidase is added for 15 minutes at which time enzymatic conversion occurs indicating reactivity of the enzyme with its substrate. This conversion is evident as a color reaction which was spectrophoretically monitored at 490 nm. The intensity of the color indirectly reflects the presence of antibody directed against the viral 65 KD matrix antigen. The presence of the viral matrix antigen refects the amount of HCMV replication. Thus, test wells, in which little viral replication has occurred, would have little or no antibody binding and are present with low levels of color. Non-infected wells serve as the assay background control.
On the technique in general: In an ELISA, binding on a coated surface is turned into a signal by an enzyme label.

Data set [2] deals with T1, CMV polymerase (Human cytomegalovirus, UniProt P08546).
T1 construct: made in house; host or cells: recombinant baculovirus-infected SF-9 cells
Put plainly: modified version of the HCMV polymerase assay (100% DMSO dilution, DTT, different enzyme lot). The format is biochemical. Particulars: Table 3. Summed up: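 Baculovirus-expressed HCMV polymerase incorporated 90 nM 3H-dTTP on 6 nM biotinylated poly(dA)-oligo(dT) in HEPES pH 7.5, KCl, MgCl2, BSA, ±2 mM CHAPS, 30 min; streptavidin-SPA read-out, IC50 by regression. In this modified version, compounds were diluted in 100% DMSO, 4.5 mM DTT was added, and a different enzyme lot was used.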

[3] abbreviates: Human betaherpesvirus 5, Fibroblast, antiviral, Table 4, read-out: IC50 (AV).
Where [4] appears, read: Human betaherpesvirus 5, Fibroblast, read-out: CMV Antiviral Assay IC50 (AV), Table 12.
[5] abbreviates: read-out: CMV Antiviral Assay IC50 (AV), Table 12.
Setting [6] is: antiviral, Table 4, read-out: IC50 (AV).

Where “and” joins values, the source holds several entries; their conditions need not be identical. Identical values can stand only once. Like-named read-outs stand apart in the source and are kept apart here.

T1 sequence (P08546 whole entry): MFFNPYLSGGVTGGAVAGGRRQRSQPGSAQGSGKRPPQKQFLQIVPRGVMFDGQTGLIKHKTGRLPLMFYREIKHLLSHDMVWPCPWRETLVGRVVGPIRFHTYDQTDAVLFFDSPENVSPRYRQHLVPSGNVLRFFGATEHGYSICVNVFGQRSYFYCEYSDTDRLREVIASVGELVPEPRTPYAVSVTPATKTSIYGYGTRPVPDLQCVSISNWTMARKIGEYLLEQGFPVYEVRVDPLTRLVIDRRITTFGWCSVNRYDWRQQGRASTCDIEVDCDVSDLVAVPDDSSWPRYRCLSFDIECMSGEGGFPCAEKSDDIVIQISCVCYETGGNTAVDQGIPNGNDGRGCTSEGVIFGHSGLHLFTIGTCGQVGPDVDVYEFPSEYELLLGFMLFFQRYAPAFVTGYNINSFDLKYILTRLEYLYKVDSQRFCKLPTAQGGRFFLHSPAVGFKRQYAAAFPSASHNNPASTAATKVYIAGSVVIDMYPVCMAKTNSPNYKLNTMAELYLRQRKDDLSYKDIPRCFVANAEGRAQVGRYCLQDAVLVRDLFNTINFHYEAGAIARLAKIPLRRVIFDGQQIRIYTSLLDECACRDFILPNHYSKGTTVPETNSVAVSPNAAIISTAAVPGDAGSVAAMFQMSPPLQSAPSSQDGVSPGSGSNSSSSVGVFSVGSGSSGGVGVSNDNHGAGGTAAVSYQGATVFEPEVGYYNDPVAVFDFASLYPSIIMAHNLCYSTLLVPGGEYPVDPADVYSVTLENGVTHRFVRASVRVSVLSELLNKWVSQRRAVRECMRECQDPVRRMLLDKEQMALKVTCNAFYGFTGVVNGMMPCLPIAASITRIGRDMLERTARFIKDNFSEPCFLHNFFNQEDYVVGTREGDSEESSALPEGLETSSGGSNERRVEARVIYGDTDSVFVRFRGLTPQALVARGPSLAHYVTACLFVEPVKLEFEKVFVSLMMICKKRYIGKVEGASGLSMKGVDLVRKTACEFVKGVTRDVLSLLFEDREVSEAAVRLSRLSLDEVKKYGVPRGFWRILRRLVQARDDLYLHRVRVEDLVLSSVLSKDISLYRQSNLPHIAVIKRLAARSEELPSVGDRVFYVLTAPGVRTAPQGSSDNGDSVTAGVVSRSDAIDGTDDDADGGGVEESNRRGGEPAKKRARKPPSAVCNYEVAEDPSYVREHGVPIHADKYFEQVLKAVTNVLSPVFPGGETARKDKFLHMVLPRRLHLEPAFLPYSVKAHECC

The molecule `C[Si](C)(C)c1cc(Cl)c2cccnc2c1O` [Example 44, 5-Chloro-7-(trimethylsilyl)-8-quinolinol] returned a melting point of 109 to 111 °C. For the same molecule, the “% Inh −AV” value in data set [1] (Conc 4.00e+000 uM, Table 4) was 65.0% and 59.0%. Also, the IC50 in data set [1] (setting [3]) is 2.7 µM.
As to `Cc1ccc2c(Cl)cc(S(=O)(=O)NCCCN3CCOCC3)c(O)c2n1` [drawing 326], the 50% inhibitory concentration (IC50) worked out at 2.5 µM in data set [1] (setting [4]) and 3.6 µM in data set [1] (setting [5]).
As for `CC(C)[Si](c1cc(Cl)c2cccnc2c1O)(C(C)C)C(C)C` [Example 42], the melting point was in the range of 107 to 108 °C. Further, the “% Inh −AV” value in data set [1] (Conc 2.00e+001 uM, Table 4) was 88.0% and 99.0%. The “% Inh −AV” value in data set [1] (Conc 4.00e+000 uM, Table 4) is 51.0% and 89.0%. Further, the “% Inh −AV” value in data set [1] (Conc 4.00e+001 uM, Table 4) was 92.0% and 99.0%. In data set [1] (Conc 8.00e−001 uM, Table 4), the “% Inh −AV” value worked out at 0.0%. For the same molecule, in data set [1] (setting [6]), the half-inhibitory concentration (IC50) turned out to be 5.2 µM.
Take `CC(C)(C)[Si](C)(C)c1cc(Cl)c2cccnc2c1O` [Example 41, 5-Chloro-7-[(1,1-dimethylethyl)dimethylsilyl]-8-quinolinol]: the melting point is 107 to 108 °C. Also, in data set [1] (Conc 1.00e+001 uM, Table 4), the “% Inh −AV” value is 92.0%. Also, in data set [1] (Conc 2.00e+000 uM, Table 4), the “% Inh −AV” value came to 56.0%. For the same molecule, the “% Inh −AV” value in data set [1] (Conc 2.00e+001 uM, Table 4) was 86.0% and 76.0%. The “% Inh −AV” value in data set [1] (Conc 4.00e+000 uM, Table 4) is 65.0% and 70.0%. Also, in data set [1] (Conc 4.00e+001 uM, Table 4), the “% Inh −AV” value is 99.0% and 76.0%. The “% Inh −AV” value in data set [1] (Conc 5.00e+001 uM, Table 4) stood at 78.0%. Further, the “% Inh −AV” value in data set [1] (Conc 8.00e+000 uM, Table 4) amounted to 78.0%. For the same molecule, the 50% inhibitory concentration (IC50) in data set [1] (setting [6]) was determined as 3.8 µM.
As to `Cc1ccc2c(Cl)cc(S(=O)(=O)NCCCCc3ccccc3)c(O)c2n1` [drawing 328], the IC50 in data set [1] (setting [4]) was found to be 3.5 µM.
For `CC(C)(C)[Si](c1ccccc1)(c1ccccc1)c1cc(Cl)c2cccnc2c1O` [Example 43, 5-Chloro-7-[(1,1,-dimethylethyl)diphenylsilyl]-8-quinolinol], the melting point lay within 133 to 139 °C. The “% Inh −AV” value in data set [1] (Conc 1.00e+001 uM, Table 4) is on record as 99.0%. For the same molecule, in data set [1] (Conc 1.25e+000 uM, Table 4), the “% Inh −AV” value is 87.0%. The “% Inh −AV” value in data set [1] (Conc 2.00e+001 uM, Table 4) amounted to 90.0%. Also, the “% Inh −AV” value in data set [1] (Conc 2.50e+000 uM, Table 4) is listed as 99.0%. The “% Inh −AV” value in data set [1] (Conc 4.00e+000 uM, Table 4) was 77.0% and 88.0%. For the same molecule, the “% Inh −AV” value in data set [1] (Conc 4.00e+001 uM, Table 4) was 85.0% and 81.0%. In addition, in data set [1] (Conc 4.00e−001 uM, Table 4), the “% Inh −AV” value is listed as 50.0%. For the same molecule, the “% Inh −AV” value in data set [1] (Conc 5.00e+000 uM, Table 4) stood at 99.0%. For the same molecule, in data set [1] (Conc 8.00e−001 uM, Table 4), the “% Inh −AV” value was 65.0% and 43.0%. The IC50 in data set [1] (setting [6]) is 0.12 µM and 0.44 µM.
With `C[Si](C)(c1ccccc1)c1cc(Cl)c2cccnc2c1O` [Example 45, 5-Chloro-7-(dimethylphenylsilyl)-8-quinolinol], the melting point was 101 to 103 °C. Also, the “% Inh −AV” value in data set [1] (Conc 2.00e+001 uM, Table 4) came out at 83.0%. For the same molecule, the “% Inh −AV” value in data set [1] (Conc 4.00e+000 uM, Table 4) was 75.0%. The “% Inh −AV” value in data set [1] (Conc 4.00e+001 uM, Table 4) amounted to 89.0%. In addition, the “% Inh −AV” value in data set [1] (Conc 8.00e−001 uM, Table 4) turned out to be 39.0%. In addition, the IC50 in data set [1] (setting [3]) is 1.2 µM.
Take `Cc1ccc2c(Cl)cc(S(=O)(=O)NCCc3ccccn3)c(O)c2n1` [drawing 329]: in data set [1] (setting [4]), the IC50 came out at 14.6 µM.
Regarding `N#Cc1ccc(NC(=O)c2ccc3cccnc3c2O)cc1` [drawing 331], in data set [1] (Human betaherpesvirus 5, Fibroblast, Table 12, read-out: CMV Antiviral Assay IC50 (AV)), the half-inhibitory concentration (IC50) worked out at 3.9 µM.
`Cc1ccc2c(Cl)cc(S(=O)(=O)NCc3ccccn3)c(O)c2n1` [drawing 327]: the 50% inhibitory concentration (IC50) is 14.4 µM in data set [1] (setting [4]); 14.1 µM and 9.4 µM in data set [1] (setting [5]).
Regarding `N#CCNC(=O)c1ccc2cccnc2c1O` [drawing 130], the IC50 in data set [1] (Human betaherpesvirus 5, Fibroblast, read-out: CMV Antiviral Assay IC50 (AV), Table 7) worked out at 3 µM.
Take `O=C(Nc1nc2ccc(Cl)cc2s1)c1ccc2cccnc2c1O` [drawing 325]: the half-maximal inhibitory concentration (IC50) in data set [1] (setting [4]) is 25.5 µM.
Molecule `Cc1ccc2c(Cl)cc(S(=O)(=O)N[C@@H](C)c3ccccc3)c(O)c2n1` [Example 40, (S)-5-Chloro-8-hydroxy-2-methyl-N-(1-phenylethyl)-7-quinolinesulfonamide] had a melting point of 83 to 87 °C. In data set [2] (Concentration 3.13 uM), 3.13 µM produced 22% inhibition. At 6.25 µM the inhibition in data set [2] (Concentration 6.25 uM) was 36%. Moreover, testing at 12.5 µM in data set [2] (Concentration 12.5 uM) gave an inhibition of 47%. Also, in data set [2] (Concentration 25 uM), the inhibition at 25 µM stood at 53%. In data set [2] (Concentration 50 uM), this molecule displayed an inhibition at 50 µM of 80%. Further, at 100 µM the inhibition in data set [2] (Concentration 100 uM) was 94%. Besides, in data set [2] (read-out: IC50), the half-inhibitory concentration (IC50) stood at 13.7 µM.

The values are drawn from patent publication US6500842B1, “8-hydroxy-7-substituted quinolines as anti-viral agents” (Pharmacia & Upjohn Company, priority 1996, dated 2002).
